Tests used:
[1] = molecular target: T1, human recombinant serotonin (5-Hydroxytryptamine) 5-HT6 receptor (Homo sapiens, UniProt P50406); test: Serotonin 5-HT6 radioligand binding assay ([3H]LSD); settings: HeLa cells; for inhibition at 0.1 µM: compound at 0.1 μM, read-out: Percent Inhibition of ligand binding, Serotonin (0.1 μM) 5-HT6; for inhibition at 1 µM: compound at 1 μM, read-out: Percent Inhibition of ligand binding, Serotonin (1 μM) 5-HT6
T1 construct: expressed in transfected cells; host or cells: human HeLa cells
T1 sequence (P50406 whole entry): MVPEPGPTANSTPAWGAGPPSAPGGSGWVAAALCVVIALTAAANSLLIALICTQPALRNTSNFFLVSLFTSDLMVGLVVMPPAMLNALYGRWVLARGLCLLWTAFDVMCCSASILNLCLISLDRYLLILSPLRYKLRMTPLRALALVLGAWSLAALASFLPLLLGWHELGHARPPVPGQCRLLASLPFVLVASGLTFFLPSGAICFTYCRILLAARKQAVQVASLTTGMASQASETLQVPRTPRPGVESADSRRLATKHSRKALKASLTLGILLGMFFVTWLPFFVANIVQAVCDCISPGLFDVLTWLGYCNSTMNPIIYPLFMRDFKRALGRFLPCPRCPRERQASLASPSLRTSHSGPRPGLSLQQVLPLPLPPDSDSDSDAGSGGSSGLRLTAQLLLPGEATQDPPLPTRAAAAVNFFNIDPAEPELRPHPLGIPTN
Protocol: Compounds of the invention were incubated with 1.5 nM [3H]Lysergic acid diethylamide (LSD) for 120 min at 37° C. […] Receptor proteins were filtered and washed, the filters were then counted to determine [3H]LSD specifically bound. Compounds were screened at 1 μM or lower, using 1% DMSO as vehicle. Biochemical assay results are presented as the percent inhibition of specific binding in Table 4.

[2] = molecular target: T2, rat adrenergic α1A receptor (Rattus norvegicus, UniProt P43140); test: Adrenergic α1A radioligand binding assay ([3H]Prozosin); settings: compound at 0.1 μM; 0.25 nM [3H]Prozosin; Wistar Rat submaxillary glands; read-out: Percent Inhibition of ligand binding, Adrenergic (0.1 μM) a1A
T2 construct: from tissue; host or cells: Wistar Rat submaxillary glands
T2 sequence (P43140 1-466): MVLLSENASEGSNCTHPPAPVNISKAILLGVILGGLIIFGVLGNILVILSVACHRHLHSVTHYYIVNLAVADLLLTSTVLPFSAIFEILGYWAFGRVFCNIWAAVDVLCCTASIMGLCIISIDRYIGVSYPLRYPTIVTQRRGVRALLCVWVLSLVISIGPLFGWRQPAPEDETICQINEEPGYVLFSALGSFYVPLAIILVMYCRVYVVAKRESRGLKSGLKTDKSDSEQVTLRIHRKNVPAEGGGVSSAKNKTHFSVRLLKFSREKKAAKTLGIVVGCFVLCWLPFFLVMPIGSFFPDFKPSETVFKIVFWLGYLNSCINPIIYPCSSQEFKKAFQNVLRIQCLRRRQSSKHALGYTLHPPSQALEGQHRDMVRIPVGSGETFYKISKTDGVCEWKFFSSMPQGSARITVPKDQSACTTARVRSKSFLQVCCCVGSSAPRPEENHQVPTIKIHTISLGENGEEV
Protocol: To evaluate in radioligand binding assays the activity of compounds of the invention, rat adrenergic α1A receptor obtained from Wistar Rat submaxillary glands (Michel, A. D. et al., Br. J. Pharmacol. 98:883, 1989) in a modified Tris-HCl buffer (50 mM Tris-HCl buffer, pH 7.4, 0.5 mM EDTA) is used. Compounds of the invention are incubated with 0.25 nM [^3H]Prozosin for 60 min at 25° C. Non-specific binding is estimated in the presence of 10 μM phentolamine. Receptor proteins are filtered and washed, the filters are then counted to determine [^3H]Prozosin specifically bound. Compounds of the invention are screened at 1 μM or lower, using 1% DMSO as vehicle. Compounds of the invention are tested in this biochemical assay and percent inhibition of specific binding is determined.

[3] = molecular target: human recombinant dopamine D2L receptor (Homo sapiens, UniProt P14416); test: Dopamine D2L radioligand binding assay ([3H]Spiperone); settings: compound at 1 μM, 0.16 nM [3H]Spiperone, CHO cells, read-out: Percent Inhibition of ligand binding, Dopamine (1μM)
Chain of human recombinant dopamine D2L receptor (P14416 whole entry): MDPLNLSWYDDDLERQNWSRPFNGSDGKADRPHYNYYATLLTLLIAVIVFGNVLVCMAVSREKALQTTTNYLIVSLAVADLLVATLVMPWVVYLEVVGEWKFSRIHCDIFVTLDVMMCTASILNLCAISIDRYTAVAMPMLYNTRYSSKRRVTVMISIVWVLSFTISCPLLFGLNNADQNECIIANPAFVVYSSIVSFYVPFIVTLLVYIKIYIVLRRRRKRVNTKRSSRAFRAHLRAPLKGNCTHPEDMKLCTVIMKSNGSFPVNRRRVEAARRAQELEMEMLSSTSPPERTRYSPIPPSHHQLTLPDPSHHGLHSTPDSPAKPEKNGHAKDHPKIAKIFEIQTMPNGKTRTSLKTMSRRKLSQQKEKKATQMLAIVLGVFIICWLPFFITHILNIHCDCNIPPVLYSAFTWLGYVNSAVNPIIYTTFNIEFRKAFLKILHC
Protocol: (§1) Compounds of the invention were incubated with 0.16 nM [^3H]Spiperone for 120 min at 25° C. Non-specific binding was estimated in the presence of 10 μM Haloperidol. Receptor proteins were filtered and washed, the filters were then counted to determine [^3H]Spiperone specifically bound. Compounds were screened at 1 μM or lower, using 1% DMSO as vehicle. Biochemical assay results are presented as the percent inhibition of specific binding in Table 3.

[4] = molecular target: T3, human recombinant serotonin (5-Hydroxytryptamine) 5-HT2A receptor (Homo sapiens, UniProt P28223); test: Serotonin 5-HT2A radioligand binding assay ([3H]Ketanserin); settings: 0.5 nM [3H]Ketanserin, CHO-K1 cells; for inhibition at 0.1 µM: compound at 0.1 μM, read-out: Percent Inhibition of ligand binding, Serotonin (0.1 μM) 5-HT2A; for inhibition at 1 µM: compound at 1 μM, read-out: Percent Inhibition of ligand binding, Serotonin (1 μM) 5-HT2A
T3 construct: expressed in transfected cells; host or cells: Chinese hamster ovary (CHO-K1) cells
T3 sequence (P28223 whole entry): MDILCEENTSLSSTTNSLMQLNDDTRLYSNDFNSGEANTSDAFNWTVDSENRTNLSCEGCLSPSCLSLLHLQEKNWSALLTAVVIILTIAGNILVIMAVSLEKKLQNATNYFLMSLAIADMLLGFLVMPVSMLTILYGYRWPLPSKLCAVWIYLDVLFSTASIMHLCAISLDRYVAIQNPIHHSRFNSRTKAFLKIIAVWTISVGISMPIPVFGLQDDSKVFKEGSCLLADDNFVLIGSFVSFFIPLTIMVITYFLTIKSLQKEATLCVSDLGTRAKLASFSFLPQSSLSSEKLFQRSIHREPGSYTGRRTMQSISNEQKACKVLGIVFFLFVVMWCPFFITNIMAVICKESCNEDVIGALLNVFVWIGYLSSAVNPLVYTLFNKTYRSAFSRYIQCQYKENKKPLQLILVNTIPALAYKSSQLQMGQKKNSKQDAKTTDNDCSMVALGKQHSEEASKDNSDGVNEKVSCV
Protocol: as §1, with “0.5” for “0.16”, “[^3H]Ketanserin” for “[^3H]Spiperone”, “60” for “120”, “1” for “10”, “Mianserin.” for “Haloperidol.”, “4.” for “3.”

[5] = molecular target: T4, human recombinant adrenergic α1D receptor (Homo sapiens, UniProt P25100); test: Adrenergic α1D radioligand binding assay ([3H]Prozosin); settings: compound at 1 μM; 0.6 nM [3H]Prozosin; HEK-293 cells; read-out: Percent Inhibition of ligand binding, Adrenergic (1 μM) a1D
T4 construct: expressed in transfected cells; host or cells: human embryonic kidney (HEK-293) cells
T4 sequence (P25100 1-572): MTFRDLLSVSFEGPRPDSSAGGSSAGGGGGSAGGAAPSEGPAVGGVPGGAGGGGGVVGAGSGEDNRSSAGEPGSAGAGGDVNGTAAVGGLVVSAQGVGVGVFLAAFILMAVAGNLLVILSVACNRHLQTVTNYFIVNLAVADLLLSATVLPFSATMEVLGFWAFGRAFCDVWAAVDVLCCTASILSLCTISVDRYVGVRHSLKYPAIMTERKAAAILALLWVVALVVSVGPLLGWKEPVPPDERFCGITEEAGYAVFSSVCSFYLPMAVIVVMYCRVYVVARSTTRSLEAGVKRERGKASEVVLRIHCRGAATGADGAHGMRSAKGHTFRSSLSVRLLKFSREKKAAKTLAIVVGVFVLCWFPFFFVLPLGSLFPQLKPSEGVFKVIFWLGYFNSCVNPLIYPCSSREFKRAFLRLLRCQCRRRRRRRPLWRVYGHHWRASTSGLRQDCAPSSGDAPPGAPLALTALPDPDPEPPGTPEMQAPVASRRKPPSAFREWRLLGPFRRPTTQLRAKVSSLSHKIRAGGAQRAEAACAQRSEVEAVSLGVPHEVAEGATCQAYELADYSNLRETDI
Protocol: Compounds of invention were incubated with 0.6 nM [^3H]Prozosin for 60 min at 25° C. Non-specific binding was estimated in the presence of 10 μM phentolamine Receptor proteins were filtered and washed, the filters were then counted to determine [^3H]Prozosin specifically bound.

Row | SMILES | inhibition at 0.1 µM [1] [%] | inhibition at 0.1 µM [2] [%] | inhibition at 1 µM [3] [%] | inhibition at 0.1 µM [4] [%] | inhibition at 1 µM [4] [%] | inhibition at 1 µM [1] [%] | inhibition at 1 µM [5] [%]
1 | Cc1ccc2c(c1)c1c(n2CC(C)c2ccncc2)CCN(C)C1 (stereo not drawn) [Compound 1-46, 2,8-dimethyl-5-(2-(pyridin-4-yl)propyl)-2,3,4,5-tetrahydro-1H-pyrido[4,3-b]indole] | 45 | 12 | 37 | 71 |  |  | 
2 | CN1CCc2c(c3cc(Cl)ccc3n2CC(O)c2ccncc2)C1 (stereo not drawn) [Compound 1-11, 2-(8-chloro-2-methyl-3,4-dihydro-1H-pyrido[4,3-b]indol-5(2H)-yl)-1-(pyridin-4-yl)ethanol] |  | 12 |  |  | 82 |  | 
3 | CCCC[C@@](O)(Cn1c2c(c3cc(Cl)ccc31)CN(C)CC2)c1ccc(F)cc1 [Compound 1-67, (S)-1-(8-chloro-2-methyl-3,4-dihydro-1H-pyrido[4,3-b]indol-5(2H)-yl)-2-(4-fluorophenyl)hexan-2-ol] | 25 | 2 | 20 | 39 |  |  | 
4 | Cc1ccc2c(c1)c1c(n2CCc2ccc(C)nc2)CCN(CCC#N)C1 [Compound 1-34, 3-(8-methyl-5-(2-(6-methylpyridin-3-yl)ethyl)-3,4-dihydro-1H-pyrido[4,3-b]indol-2(5H)-yl)propanenitrile] |  |  | -4 |  | 0 | 6 | 6
5 | Cc1ccc2c(c1)c1c(n2CCc2ccc(C(F)(F)F)nc2)CCNC1 [Compound 1-41, 8-methyl-5-(2-(6-(trifluoromethyl)pyridin-3-yl)ethyl)-2,3,4,5-tetrahydro-1H-pyrido[4,3-b]indole] |  |  | -8 |  | 66 | 14 | 74
6 | CN1CCc2c(c3cc(Cl)c(Cl)cc3n2CC(C)(O)c2ccncc2)C1 (stereo not drawn) [Compound 1-17, 1-(7,8-dichloro-2-methyl-3,4-dihydro-1H-pyrido[4,3-b]indol-5(2H)-yl)-2-(pyridin-4-yl)propan-2-ol] |  | 0 |  |  | 96 |  | 
7 | Cc1ccc2c(c1)c1c(n2CCc2ccc(C)nc2)CCN(CCCO)C1 [Compound 1-42, 3-(8-methyl-5-(2-(6-methylpyridin-3-yl)ethyl)-3,4-dihydro-1H-pyrido[4,3-b]indole-2(5H)-yl)propan-1-ol] |  |  | 11 |  | 87 | 43 | 55
8 | Cc1ccc2c(c1)c1c(n2CC(=O)c2ccc(F)cc2)CCN(C)C1 [Compound 1-39, 2-(2,8-dimethyl-3,4-dihydro-1H-pyrido[4,3-b]indol-5(2H)-yl)-1-(4-fluorophenyl)ethanone] |  |  | 57 |  | 98 | 62 | 57
9 | CC[C@@](O)(Cn1c2c(c3cc(C)ccc31)CN(C)CC2)c1ccc(F)cc1 [Compound 1-66, (S)-1-(2,8-dimethyl-3,4-dihydro-1H-pyrido[4,3-b]indol-5(2H)-yl)-2-(4-fluorophenyl)butan-2-ol] | 72 | -1 | 6 | 77 |  |  | 
10 | Cc1ccc2c(c1)c1c(n2CC(O)c2ccncc2)CCN(C)C1 (stereo not drawn) [Compound 1-8, 2-(2,8-dimethyl-3,4-dihydro-1H-pyrido[4,3-b]indol-5(2H)-yl)-1-(pyridin-4-yl)ethanol] |  | 9 |  |  | 86 |  | 
11 | Cc1ccc2c(c1)c1c(n2CC(C)(O)c2ccc(O)cc2)CCN(C)C1 (stereo not drawn) [Compound 1-15, 4-(1-(2,8-dimethyl-3,4-dihydro-1H-pyrido[4,3-b]indol-5(2H)-yl)-2-hydroxypropan-2-yl)phenol] |  | 36 |  |  | 102 |  | 
12 | CN1CCc2c(c3cc(Cl)ccc3n2CC(=O)c2ccc(Cl)cc2)C1 [Compound 1-38, 2-(8-chloro-2-methyl-3,4-dihydro-1H-pyrido[4,3-b]indol-5(2H)-yl)-1-(4-chlorophenyl)ethanone] |  |  | 44 |  | 100 | 57 | 56
13 | CN1CCc2c(c3cc(Cl)ccc3n2CC(=O)c2ccc(F)cc2)C1 [Compound 1-37, 2-(8-chloro-2-methyl-3,4-dihydro-1H-pyrido[4,3-b]indol-5(2H)-yl)-1-(4-fluorophenyl)ethanone] |  |  | 85 |  | 98 | 71 | 56
14 | Cc1ccc2c(c1)c1c(n2CCc2ccc(CCCN)nc2)CCN(C)C1 [Compound 1-40, 3-(5-(2-(2,8-dimethyl-3,4-dihydro-1H-pyrido[4,3-b]indol-5(2H)-yl)ethyl)pyridin-2-yl)propan-1-amine] |  |  | 3 |  | 78 | 24 | 53
15 | CN1CCc2c(c3cc(Cl)ccc3n2CC(=O)c2ccccc2)C1 [Compound 1-36, 2-(8-chloro-2-methyl-3,4-dihydro-1H-pyrido[4,3-b]indol-5(2H)-yl)-1-phenylethanone] |  |  | 73 |  | 98 | 71 | 52
16 | Cc1ccc2c(c1)c1c(n2CC(C)(C)c2ccncc2)CCN(C)C1 [Compound 1-49, 2,8-dimethyl-5-(2-methyl-2-(pyridin-4-yl)propyl)-2,3,4,5-tetrahydro-1H-pyrido[4,3-b]indole] | 38 | 13 | 54 | 78 |  |  | 
17 | Cc1ccc2c(c1)c1c(n2CC(=O)c2ccccc2)CCN(C)C1 [Compound 1-35, 2-(2,8-dimethyl-3,4-dihydro-1H-pyrido[4,3-b]indol-5(2H)-yl)-1-phenylethanone] |  |  | 4 |  | 90 | 14 | 18

Source: US9255094B2, “Pyrido[4,3-B]indoles and methods of use” (Medivation Technologies, Inc., priority 2009, dated 2016)
